# Test results taken from patent publication US4273771A, “Novel Δ^4,9 -gonadiene-21-ol-3,20-diones” (Roussel Uclaf, priority 1978, dated 1981).
# Legend:
# immature female mice = assay: antiestrogenic activity, uterus weight (method of Rubin and Dorfman et al); format: in vivo
# Description: The estrogenic activity of the product A of Example 1 was also determined by the method of Rubin [Endocrinology, Vol. 49 (1951), p. 429] and Dorfman et al [Methods in Hormone Research, Vol. II (1962), p. 118] in which groups of 4 immature female mice 18 days old received once a day for 3 days a subcutaneous injection of estradiol only, only the test product or estradiol and the test product. In the last case, separate injections were used. The animals were killed on the 4th day and the uterus was removed, dissected and weighed. The test product was administered in a volume of 0.1 ml of sesame oil solution containing 5% of benzyl alcohol at a total dose of 0.27 μg of estradiol and the test compound was used at total doses of 0.3, 1.0, 3 and 10 μg.
# [1] = test system: immature rabbits sensitized with estradiol; assay: Clauberg test: proliferation of endometric lace; format: in vivo, rabbit; conditions: for MacPhail units: subcutaneous, 5 days
# Description: The progestomimetic activity was also determined by the Clauberg test in which groups of 3 immature rabbits were previously sensitized by subcutaneous administration of estradiol for 5 days at a daily dose of 5 μg. Two days after the last treatment, the compound A of Example 1 in solution in sesame oil containing 5% of benzyl alcohol was subcutaneously administered daily for 5 days and the rabbits were killed on the 6th day. The uterus was removed and the proliferation of endometric lace which is characteristic of progestomimetic activity was determined in MacPhail units.
# [2] = molecular target: T1, specific progesterone receptors (uterine cytosol) (Oryctolagus cuniculus, UniProt P06186); assay: hormonal receptor method: displacement of tritiated Product R in rabbit uterine cytosol; format: binding; conditions: for ARL (relative affinity of the test product): progesterone = 100
# T1 construct: the uterus was removed and homogenized in a buffered solution; from tissue; host or cells: uterus cytosol (105,000 g supernatant) of immature estradiol-treated rabbits
# T1 sequence (P06186 1-930): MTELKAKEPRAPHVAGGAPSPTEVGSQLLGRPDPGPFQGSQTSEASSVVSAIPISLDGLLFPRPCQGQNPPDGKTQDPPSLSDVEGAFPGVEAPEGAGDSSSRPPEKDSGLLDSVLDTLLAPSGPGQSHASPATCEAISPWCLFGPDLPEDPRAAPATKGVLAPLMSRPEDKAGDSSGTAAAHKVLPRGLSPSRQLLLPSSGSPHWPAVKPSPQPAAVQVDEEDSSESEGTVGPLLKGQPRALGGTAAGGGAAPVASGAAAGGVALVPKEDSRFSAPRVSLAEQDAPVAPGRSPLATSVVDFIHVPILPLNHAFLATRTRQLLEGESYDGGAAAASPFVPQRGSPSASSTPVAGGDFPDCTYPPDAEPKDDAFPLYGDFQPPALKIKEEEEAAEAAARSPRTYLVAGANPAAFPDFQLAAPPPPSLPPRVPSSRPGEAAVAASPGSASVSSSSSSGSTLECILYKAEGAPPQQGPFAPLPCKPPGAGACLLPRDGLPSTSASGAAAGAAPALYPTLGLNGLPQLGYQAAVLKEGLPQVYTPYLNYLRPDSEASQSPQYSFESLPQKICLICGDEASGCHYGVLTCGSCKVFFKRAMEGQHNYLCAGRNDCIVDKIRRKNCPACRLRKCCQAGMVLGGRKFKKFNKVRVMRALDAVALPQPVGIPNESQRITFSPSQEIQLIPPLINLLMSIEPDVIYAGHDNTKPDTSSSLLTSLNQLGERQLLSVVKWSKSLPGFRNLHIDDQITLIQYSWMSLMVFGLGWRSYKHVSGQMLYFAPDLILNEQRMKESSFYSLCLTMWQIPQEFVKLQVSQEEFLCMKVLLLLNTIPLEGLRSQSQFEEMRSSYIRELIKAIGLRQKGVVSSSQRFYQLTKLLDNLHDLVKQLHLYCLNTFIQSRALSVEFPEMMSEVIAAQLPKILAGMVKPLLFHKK
# Description: The progestomimetic activity was determined for the product A of Example 1 by the hormonal receptor method of Raynaud et al [J. Ster. Biochem., Vol. 6 (1975), p. 615-622 and Physiology and Genetics of Reproduction, 1975, Part A, p. 143-160]. Immature rabbits received 25 μg of estradiol percutaneously and were sacrificed after 5 days and the uterus was removed and homogenized in a buffered solution of 10 mM of tromethamine, 0.25 M of saccharose and a pH of 7.4 was kept with hydrochloric acid. The homogenate was centrifuged at 105,000 g per hour and the surnageant or cytosol was adjusted to a solution of 1/50 (weight/volume). […] The radioactivity of the tritiated product R was determined after 2 hours and after 24 hours by the technique of adsorption on carbondextran (1.25%-0.625%). The plots were the curves of the right parallel of the axis of abscisses of ordinate [formula] wherein Bo is the maximum amount of tied tritiated product R measured in the incubation containing only tritiated product R and Bmin is the minimum amount of tied tritiated product R (non-specific) measured in the incubation containing tritiated product R and a large excess of cold product R (2500×10^-9 M) and the curves representing the percentages of tied tritiated product R B/Bo as a logarithmatic function of the concentrations of added cold product R.
# The intersections of these I50 straight lines and the curves permit the determination of the values: CP--concentration of cold progesterone which inhibits by 50% the fixation of the tritiated product R and CX--concentration of test product which inhibits by 50% the fixation of tritiated product R. The relative affinity of the test product (ARL) was determined by the formula [formula] and the results are reported in Table I
# [3] = total dose 0.3 μg + estradiol 0.27 μg
# [4] = total dose 1 μg + estradiol 0.27 μg
# [5] = total dose 3 μg + estradiol 0.27 μg
# [6] = total dose 10 μg + estradiol 0.27 μg
smiles,measurement,setting,value
"C[C@]12CC[C@@H]3c4ccc(O)cc4CC[C@H]3[C@@H]1CC[C@@H]2O [Estradiol, reference compound]",Average Weight of uterus,"immature female mice; estradiol only, total dose 0.27 μg, subcutaneous, 3 days",99.3 mg
"CC(O)C(=O)C1(C)CCC2C3CCC4=CC(=O)CCC4=C3CCC21C (single isomer, unassigned) [Product A of Example 1, 17α-methyl-17β-(2-hydroxy-1-oxopropyl)-Δ^4,9-estradiene-3-one]",antiestrogenic activity against estradiol,"immature female mice; dose of 1 μg, result in words",clear antiestrogenic activity
same,Average Weight of uterus,"immature female mice; test product only, total dose 0.3 μg",14.6 mg
same,Average Weight of uterus,"immature female mice; test product only, total dose 1 μg",13.0 mg
same,Average Weight of uterus,"immature female mice; test product only, total dose 3 μg",17.1 mg
same,Average Weight of uterus,"immature female mice; test product only, total dose 10 μg",15.8 mg
same,Average Weight of uterus,immature female mice; [3],80.5 mg
same,change of average uterus weight versus estradiol only,immature female mice; [3],-19%
same,Average Weight of uterus,immature female mice; [4],59.6 mg
same,change of average uterus weight versus estradiol only,immature female mice; [4],-39%
same,Average Weight of uterus,immature female mice; [5],38.5 mg
same,change of average uterus weight versus estradiol only,immature female mice; [5],-61%
same,Average Weight of uterus,immature female mice; [6],39.6 mg
same,change of average uterus weight versus estradiol only,immature female mice; [6],-60%
same,MacPhail units,[1]; 1 μg daily,2.2 MacPhail units
same,MacPhail units,[1]; 3 μg daily,3.4 MacPhail units
same,MacPhail units,[1]; 10 μg daily,3.4 MacPhail units
same,progestomimetic activity,[1]; result in words,very strong progestomimetic activity
same,ARL (relative affinity of the test product),[2]; 2 h incubation at 0° C.,204
same,ARL (relative affinity of the test product),[2]; 24 h incubation at 0° C.,688
same,affinity for specific uterine reception of progesterone compared with progesterone,[2]; result in words,much greater affinity
